Some test systems named below: 786-0 renal; NCI-H226 lung; DU-145 prostate; IGROV1 ovarian; UO-31 renal; HCC-2998 colon; OVCAR-8 ovarian; PC-3 prostate; UACC-62 melanoma; T-47D breast.
What all share (assay): growth of human tumour cells (NCI), 48 h

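Each compound was tested at five concentrations against cells in 96-well plates for 48 hours. Here, GI50 denotes the concentration required for 50% inhibition of growth. TGI denotes the concentration required for complete inhibition of growth.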 *1 amine or outer side, *2 acyl side, *3 side chain or, on linkers, in order; H or OH if unused. Where a SMILES comes first, the peptide text is derived from it. Bridges are numbered along the chain shown (N, C = ends). [ ]: non-standard residue; d: D form. The star is where a group is joined. Phe(3-Me) = Cc1cccc(C[C@H](N)C(=O)O)c1; NH(4-Cl-2-F-phenyl) = Fc1cc(Cl)ccc1N*; Pro(4R-Me) = C[C@H]1CN[C@H](C(=O)O)C1; Hyp = O=C(O)[C@@H]1C[C@@H](O)CN1; aThr = C[C@H](O)[C@H](N)C(=O)O; Pip = O=C(O)[C@@H]1CCCCN1; CO = O=C([*:1])[*:2] Bounds are passed on as bounds.

On to `COc1cc2c(OC)c(c1)CCCC1=CC(=O)C=C(CCC2)C1=O`, for which the TGI was more than 55.1 µM in the assay with 786-0 renal; more than 100 µM with NCI-H226 lung; more than 100 µM in the assay with DU-145 prostate; more than 100 µM in the assay on IGROV1 ovarian; more than 100 µM in the assay with UO-31 renal; more than 100 µM in the assay on HCC-2998 colon. Besides, the TGI in the assay on OVCAR-8 ovarian was more than 31.6 µM; with PC-3 prostate, more than 100 µM; in the assay with UACC-62 melanoma, more than 100 µM; in the assay with T-47D breast, 43.5 µM.

For the compound `COc1cc(-c2cc(-c3nc4ccccc4[nH]3)[nH]n2)cc(OC)c1OC`, the GI50 with 786-0 renal was 3.66 µM; in the assay on NCI-H226 lung, 1.14 µM; with DU-145 prostate, 3.9 µM; with IGROV1 ovarian, 2.34 µM; with UO-31 renal it was 2.21 µM; in the assay with HCC-2998 colon, 7.1 µM. In addition, the GI50 in the assay with OVCAR-8 ovarian is 2.35 µM; with PC-3 prostate, 2.1 µM; in the assay with UACC-62 melanoma, 1.64 µM; in the assay on T-47D breast, 1.11 µM. Further, the TGI in the assay with 786-0 renal stood at 15.5 µM; with NCI-H226 lung, 7.26 µM; in the assay with DU-145 prostate, 16.7 µM; with IGROV1 ovarian, 15.4 µM; in the assay with UO-31 renal, 12.2 µM; in the assay on HCC-2998 colon, 21.5 µM. In addition, the TGI in the assay with OVCAR-8 ovarian is 7.74 µM; with PC-3 prostate, 8.54 µM; in the assay on UACC-62 melanoma, 4.66 µM; in the assay on T-47D breast, 7.61 µM.

On to `CN1CCN(Cc2ccc(NC(=O)c3[nH]ncc3Nc3ncnc4c3CCC4)cc2)CC1`, for which the GI50 in the assay on 786-0 renal was 2.24 µM; in the assay with NCI-H226 lung, 0.755 µM; with DU-145 prostate, 1.64 µM; in the assay with IGROV1 ovarian, 1.45 µM; in the assay with UO-31 renal it was 1.5 µM; in the assay with HCC-2998 colon, 3.02 µM. Besides, the GI50 in the assay with OVCAR-8 ovarian was 3.27 µM; in the assay with PC-3 prostate, 1.96 µM; in the assay with UACC-62 melanoma it was 3.24 µM; in the assay on T-47D breast, 3.72 µM. Moreover, the TGI in the assay on 786-0 renal was 11 µM; in the assay on NCI-H226 lung, 13 µM; in the assay with DU-145 prostate it was 10.7 µM; in the assay on IGROV1 ovarian, 14.6 µM; with UO-31 renal, 7.61 µM; with HCC-2998 colon, 11.6 µM. Moreover, the TGI was 13.5 µM in the assay on OVCAR-8 ovarian, 12.1 µM in the assay with PC-3 prostate, 13.5 µM in the assay on UACC-62 melanoma and 22.7 µM in the assay on T-47D breast.

As to `C#CC[C@H](c1nc2cc(Cl)ccc2c(=O)n1Nc1ccccc1)N(CCCN)C(=O)c1cccc(Cl)c1F`, the GI50 is 1.15 µM in the assay with 786-0 renal; 1.63 µM with NCI-H226 lung; 0.215 µM with DU-145 prostate; 0.979 µM in the assay with IGROV1 ovarian; 2.94 µM with UO-31 renal; 0.178 µM in the assay on HCC-2998 colon. The GI50 in the assay on OVCAR-8 ovarian was 0.511 µM; with PC-3 prostate, 0.196 µM; in the assay with UACC-62 melanoma it was 0.636 µM; in the assay on T-47D breast it was 0.484 µM. Further, the TGI is 2.63 µM in the assay on 786-0 renal; 4.56 µM with NCI-H226 lung; 0.75 µM in the assay with DU-145 prostate; 5.8 µM in the assay on IGROV1 ovarian; 8.07 µM in the assay on UO-31 renal; 1.39 µM in the assay on HCC-2998 colon. Moreover, the TGI was determined as 1.98 µM with OVCAR-8 ovarian, 3.16 µM in the assay with PC-3 prostate, 2 µM in the assay on UACC-62 melanoma and 1.98 µM with T-47D breast.

Consider `CCc1ccc(CCC(=O)Nc2ncc(Cc3ccccc3)s2)o1`, for which the GI50 was 6.95 µM in the assay on 786-0 renal; 53.2 µM in the assay on NCI-H226 lung; 4.51 µM in the assay on DU-145 prostate; 3.24 µM with IGROV1 ovarian; 3.19 µM in the assay with UO-31 renal; 3.24 µM with HCC-2998 colon. Besides, the GI50 with OVCAR-8 ovarian is 4.5 µM; in the assay on PC-3 prostate it was 2.74 µM; in the assay with UACC-62 melanoma it was 1.21 µM; in the assay on T-47D breast, 2.6 µM. Moreover, the TGI in the assay on 786-0 renal, with NCI-H226 lung, in the assay on DU-145 prostate, in the assay on IGROV1 ovarian, in the assay on UO-31 renal and with HCC-2998 colon was more than 100 µM in each case. The TGI in the assay with OVCAR-8 ovarian, with PC-3 prostate, with UACC-62 melanoma and with T-47D breast was more than 100 µM each time.

Take `NC(=O)C1=C(c2ccccc2)c2ccccc2C1=O`: the TGI with 786-0 renal turned out to be 30.5 µM; in the assay on NCI-H226 lung it was 37.5 µM; with DU-145 prostate, 31.3 µM; in the assay with IGROV1 ovarian it was 30.6 µM; in the assay with UO-31 renal, 33.3 µM; with HCC-2998 colon it was 29.5 µM. Also, the TGI in the assay on OVCAR-8 ovarian was found to be 31 µM; in the assay with PC-3 prostate, 32.7 µM; in the assay on UACC-62 melanoma, 32.7 µM; with T-47D breast it was 40.9 µM.

For `O=C1C(Cl)=C(N2CCOCC2)C(=O)c2ccccc21`, the GI50 in the assay on 786-0 renal is 16.6 µM; in the assay on NCI-H226 lung it was 11.8 µM; in the assay with DU-145 prostate it was 17.7 µM; in the assay with IGROV1 ovarian, 3.33 µM; with UO-31 renal, 1.64 µM; in the assay with HCC-2998 colon, 12 µM. Also, the GI50 in the assay on OVCAR-8 ovarian is 1.6 µM; with PC-3 prostate, 9.38 µM; in the assay with UACC-62 melanoma, 3.06 µM; in the assay with T-47D breast it was 2.31 µM. For the same compound, the TGI worked out at 31.2 µM in the assay on 786-0 renal; 24.2 µM in the assay with NCI-H226 lung; 31.9 µM in the assay on DU-145 prostate; 6.74 µM in the assay with IGROV1 ovarian; 3.28 µM in the assay with UO-31 renal; 25.6 µM in the assay with HCC-2998 colon. Further, the TGI in the assay with OVCAR-8 ovarian is 3 µM; in the assay on PC-3 prostate, 23.7 µM; in the assay on UACC-62 melanoma, 10.7 µM; in the assay with T-47D breast it was 5.13 µM.

As for `Cc1cccc(C[C@H](NC(=O)Nc2ccc(Cl)cc2F)C(=O)N[C@@H]2C(=O)N3C[C@H](O)C[C@H]3C(=O)N3CCCC[C@H]3C(=O)N[C@@H](C)C(=O)N3C[C@H](C)C[C@H]3C(=O)O[C@H]2C)c1` ({NH(4-Cl-2-F-phenyl)-CO}-[Phe(3-Me)][aThr][Hyp][Pip]A[Pro(4R-Me)]; ester 2-C), the GI50 was 1.28 µM in the assay on 786-0 renal; 0.511 µM with NCI-H226 lung; 0.511 µM with DU-145 prostate; 0.919 µM with IGROV1 ovarian; 2.14 µM in the assay with UO-31 renal; 0.468 µM with HCC-2998 colon. In addition, the GI50 with OVCAR-8 ovarian was 0.435 µM; in the assay on PC-3 prostate, 0.365 µM; in the assay on UACC-62 melanoma, 0.505 µM; in the assay with T-47D breast, 0.415 µM. Besides, the TGI in the assay with 786-0 renal worked out at 7.69 µM; with NCI-H226 lung, 2.63 µM; in the assay on DU-145 prostate, 9.84 µM; with IGROV1 ovarian it was 2.98 µM; in the assay on UO-31 renal, 7.68 µM; in the assay on HCC-2998 colon it was 1.77 µM. The TGI with OVCAR-8 ovarian was 15.6 µM; with PC-3 prostate it was 1.85 µM; with UACC-62 melanoma, 1.96 µM; in the assay on T-47D breast, 4.84 µM.

The record behind these values is PubChem BioAssay (NCI).
